Measurements taken from publication PMC7438500 (Nature Communications, 2020).
“Also recorded” adds a separate entry of the source.

Tests used:
[1] = system: ghrelin receptor; conditions: cited from earlier work
Text: No other peptide hormone is known to require such an acyl-modification for its activity.

[2] = system: ghrelin receptor R283A; assay: Intracellular Ca2+ concentration assay, R283A; assay type: cell-based, human; conditions: Fig. 4d
Protocol: (§1) The positions of mutated amino acids and primers are listed in Supplementary Table 2.
(§2) Transfections were performed using the FuGENE HD transfection reagent (Promega). The next day, the transfected cells were collected and plated into 96-well black-wall assay microplates (Corning) at a density of 3 × 10^4 cells/well. After a 1-day incubation, the cells were incubated for 1 h with 100 μl of calcium indicator Fluo-4 from the FLIPR Calcium 5 Assay Kit (Molecular Devices) in Hank’s BSS containing 20 mM HEPES-NaOH (pH7.5) and 2.5 mM probenecid. Fifty-microliter aliquots of samples were tested to induce changes in fluorescence due to increased calcium concentration on a FlexStation3 (Molecular Devices). Maximum [Ca^2+]i changes were determined in quadruplicate (n = 4).

[3] = peripheral injection; ref [3]; cited from earlier work
[4] = system: ghrelin receptor R102A; assay: Intracellular Ca2+ concentration assay, R102A; assay type: cell-based, human; conditions: Fig. 4b
Protocol: as §1, §2

[5] = system: T1, ghrelin receptor F286A; assay: Intracellular Ca2+ concentration assay, F286A; assay type: cell-based, human; conditions: Fig. 4f
T1 construct: Full-length human ghrelin receptor was used for the mutagenesis; expressed in transfected cells; host or cells: CHO cells
Protocol: as §1, §2

[6] = system: ghrelin receptor D99A; assay: Intracellular Ca2+ concentration assay, D99A; assay type: cell-based, human; conditions: Fig. 4a
Protocol: as §1, §2

[7] = system: ghrelin receptor E124A; assay: Intracellular Ca2+ concentration assay, E124A; assay type: cell-based, human; conditions: Fig. 4c
Protocol: as §1, §2

[8] = system: ghrelin receptor WT (hGHSR WT); assay: Luciferase assay, basal (constitutive) activity in presence of Compound 21; assay type: cell-based, human; conditions: CHO cells, 10^-10 to 10^-6 M Compound 21, 1 h; n=5–6
Protocol: Transfections were performed using the FuGENE HD transfection reagent (Promega). The next day, the transfected cells were collected and plated into 96-well white microplates (Corning) at a density of 2.5 × 10^4 cells/well. After a 1-day incubation, the luciferase activities were determined using Dual-Luciferase Reporter Assay System (Promega). […] All firefly luciferase activities were normalized against Renilla luciferase activity. All experiments were performed in sextuplicate.

[9] = target: T2, ghrelin receptor WT (Homo sapiens, UniProt Q92847, N188Q); assay: [3H]-Compound 21 saturation binding, WT; conditions: HEK293 membranes, on ice 1 h, pH7.5; mean ± s.d., three independent experiments
T2 construct: Full-length human ghrelin receptor was used for the mutagenesis; expressed in transfected cells
Protocol: (§3) The homogenate was ultracentrifuged at 100,000×g for 30 min at 4 °C, and the pellet was washed twice with cold homogenization buffer. The protein concentration was determined using BCA Protein Assay (Thermo Fisher). […] Bound [^3H]-Compound 21 was quantified with an AccuFLEX LCS-8000 liquid scintillation counter (Hitachi) after addition of 2.5 ml of Clear-Sol liquid scintillation cocktail (Nacalai Tesque). Data were analyzed by nonlinear curve-fitting using the program GraphPad Prism 5. Binding data are reported as means ± s.d.

[10] = target: T3, ghrelin receptor (Homo sapiens, UniProt Q92847); assay: Crystal structure of bRIL-hGHSR-Fab 7881-Compound 21 complex; conditions: 3.3 Å resolution, PDB 6KO5
T3 construct: expressed in transfected cells; host or cells: HEK293 cells (membrane preparations, transient expression)
Protocol: The complex was purified by gel filtration using Superdex 200 Increase 10/300 GL. […] In the mixture, the protein solution:lipid mass ratio was fixed at 2:3 using the twin-syringe mixing method. Crystallization experiments were carried out in 96-well glass sandwich plates (Molecular Dimensions) on an NT8-LCP crystallization robot (Formulatrix) using a 30 nl protein solution cubic phase overlaid with 600 nl precipitant solution, and incubated at 20 °C. The best crystals were obtained from precipitant solution containing 100 mM MES (pH 6.6–7.0), 400 mM potassium acetate, and 36–40% polyethylene glycol (PEG) 300. The crystals were collected within 2 weeks using mesh grid loops (WAKENBTECH) and flash-cooled in liquid nitrogen. Initial crystals were obtained in hanging drops by vapor diffusion at 20 °C from the precipitant solution containing 100 mM bicine (pH 9.0), 100 mM sodium chloride, and 30% PEG550MME.
All diffraction datasets were collected at SPring-8 BL32XU[42] using a micro-focused X-ray beam. Loop-harvested microcrystals were identified using raster scan and analysis by SHIKA[43]. […] The structure was determined by molecular replacement with the program PHASER[47], using the receptor portions of the antagonist-bound orexin receptor (PDB ID: 4S0V), bRIL (PDB ID: 1M6T), and the Fab 7881 antibody (this study, ID: 6KS2) as the search models. […]

[11] = target: ghrelin receptor crystallization construct (hGHSR29-346 (T130K/N188Q)); assay: [3H]-Compound 21 saturation binding, crystallization construct; set-up: species or system human; conditions: Sf9 membranes, 3.125–50 nM radioligand, on ice 1 h, pH7.5; mean ± s.d.
Protocol: as §3

[12] = system: bRIL-hGHSR; assay: Protein thermostability assay (CPM); assay type: biochemical, human; conditions: Compound 21 present in both samples
Protocol: The thermal stability analysis was performed with the thiol-specific fluorochrome N-[4-(7-diethylamino-4-methyl-3-coumarinyl)phenyl]maleimide (CPM)[40]. CPM at 4 mg ml^−1 in DMSO was diluted 40-fold into buffer containing 20 mM HEPES-NaOH (pH 7.5), 100 mM NaCl, 0.01% LMNG, and 0.001% CHS. Purified protein (20 µg) was mixed with diluted CPM and incubated on ice for 15 min in darkness. The reaction mixture (20 µl) was heated in a controlled manner with a ramp rate of 3 °C min^−1 in a MyiQ2 thermal cycler (Bio-Rad). […] Assays were performed over a temperature range starting from 4 °C and ending at 80 °C. The peak in the derivative of the fluorescence signal was used to determine the melting temperature.

T3 sequence (Q92847 whole entry): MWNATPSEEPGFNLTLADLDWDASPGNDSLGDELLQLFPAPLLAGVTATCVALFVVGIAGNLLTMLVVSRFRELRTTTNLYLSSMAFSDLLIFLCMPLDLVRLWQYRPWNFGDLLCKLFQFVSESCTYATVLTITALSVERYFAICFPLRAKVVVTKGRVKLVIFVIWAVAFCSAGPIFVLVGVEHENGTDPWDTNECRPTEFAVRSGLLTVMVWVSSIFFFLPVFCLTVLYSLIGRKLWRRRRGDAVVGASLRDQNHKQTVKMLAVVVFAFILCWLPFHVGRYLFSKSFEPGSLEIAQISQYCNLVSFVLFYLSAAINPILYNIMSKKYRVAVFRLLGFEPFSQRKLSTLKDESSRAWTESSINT
T2 sequence (Q92847 whole entry N188Q): as the sequence (Q92847 whole entry) above, with N188Q counted along it

Molecule: des-acyl ghrelin
- activity of ghrelin forms ([1]; ref [2],[5]): inactive

Molecule: n-octanoyl ghrelin
- potency of ghrelin forms ([1]; reference not given): most potent active form

Molecule: CCCCCCCC(=O)OC[C@H](NC(=O)[C@H](CO)NC(=O)CN)C(=O)N[C@@H](Cc1ccccc1)C(=O)N[C@@H](CC(C)C)C(=O)N[C@@H](CO)C(=O)N1CCC[C@H]1C(=O)N[C@@H](CCC(=O)O)C(=O)N[C@@H](Cc1c[nH]cn1)C(=O)N[C@@H](CCC(N)=O)C(=O)N[C@@H](CCCNC(=N)N)C(=O)N[C@H](C(=O)N[C@@H](CCC(N)=O)C(=O)N[C@@H](CCC(N)=O)C(=O)N[C@@H](CCCNC(=N)N)C(=O)N[C@@H](CCCCN)C(=O)N[C@@H](CCC(=O)O)C(=O)N[C@@H](CO)C(=O)N[C@@H](CCCCN)C(=O)N[C@@H](CCCCN)C(=O)N1CCC[C@H]1C(=O)N1CCC[C@H]1C(=O)N[C@@H](C)C(=O)N[C@@H](CCCCN)C(=O)N[C@@H](CC(C)C)C(=O)N[C@@H](CCC(N)=O)C(=O)N1CCC[C@H]1C(=O)N[C@@H](CCCNC(=N)N)C(=O)O)C(C)C [Ghrelin]
- ghrelin-induced receptor function [2]: completely abolished ghrelin-induced receptor function
- appetite [3]: induces appetite stimulation following peripheral injection
- receptor activity [4]: abolishes the receptor activity
- ghrelin-induced receptor activity [5]: only slightly lower than that of the WT ghrelin receptor
- receptor activity [6]: abolishes the receptor activity
- ghrelin-induced receptor function [7]: completely abolished ghrelin-induced receptor function

Molecule: Cc1nc2ccc(Oc3ccc(Br)cc3F)nc2c(=O)n1CC1CCCN(C(C)C)C1 (centres unmarked) [Compound 21]
- effect on constitutive activity [8]: no effect on the constitutive activity; also recorded: neutral antagonist
- Kd [9]: 4.42 ± 0.76 nM
- interaction seen in crystal structure [10]: forms a hydrogen bond with R283^6.55; also recorded: π–cation interaction with R102^2.63; also recorded: forms hydrophobic interactions with the F279^6.51, F309^7.39, and F312^7.42; also recorded: three hydrophobic contacts with residues I178^4.60, L181^4.63, and M213^5.39
- Kd [11]: 17.2 ± 7.1 nM

B1: Fab 7881: Fab fragment antibody specific for the ghrelin receptor, binds ICL3 (antibody, V domains shown)
VH: EVQLQQSGAELVRPGASVKLSCKASGYTFTDYEMHWVKQTPVHGLEWIGAIDPETGGTVYNQKFKGKATLTADISSTTAYMELRSLTSEDSAVYFCISEDIDESKDYWGQGTTLTVSS
VL: DIVMTQSPSSLAVSAGEKVTLSCKSSQSLFNSRTRKNYLAWYQQKPGLSPTLLIYWASTRKSGVPDRFTGSGSGTDFTLTITSVQAEDLAVYYCKQSYYLRTFGGGTKLEIK
- interaction seen in crystal structure [10]: binds to intracellular loop 3 (ICL3)
- increase of Tm [12]: about 5 °C
